Measurements reported in patent US20200131142A1, “FARNESOID X RECEPTOR AGONISTS AND USES THEREOF” (Metacrine, Inc., priority 2017, published 2020).

Each compound was assayed against T1, hFXR (Homo sapiens, UniProt Q96RI1) (assay: In Vitro FXR Assay (TK): hFXR/hRXR TK-ECRE-luc reporter in transfected CV-1 cells). Settings: 18 hrs incubation, luminescence, compounds with maximum efficacy <25% of the Fexarmine control classified as '+'.
T1 construct: expressed in transfected cells; host or cells: CV-1 cells
T1 sequence (Q96RI1 1-486): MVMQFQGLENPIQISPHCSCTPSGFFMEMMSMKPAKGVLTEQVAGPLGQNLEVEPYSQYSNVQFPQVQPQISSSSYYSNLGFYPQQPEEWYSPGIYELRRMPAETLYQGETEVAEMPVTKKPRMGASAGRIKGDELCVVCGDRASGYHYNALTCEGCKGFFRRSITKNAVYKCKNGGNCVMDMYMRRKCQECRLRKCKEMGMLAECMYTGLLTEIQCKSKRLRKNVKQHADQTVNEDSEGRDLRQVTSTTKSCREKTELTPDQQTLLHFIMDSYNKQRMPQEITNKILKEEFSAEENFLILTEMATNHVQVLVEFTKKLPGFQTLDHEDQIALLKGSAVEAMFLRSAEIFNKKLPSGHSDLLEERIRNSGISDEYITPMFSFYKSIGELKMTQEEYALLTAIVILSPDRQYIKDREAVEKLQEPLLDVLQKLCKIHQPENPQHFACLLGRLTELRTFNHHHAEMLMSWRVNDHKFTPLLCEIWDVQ
T1 sequence (P19793 1-462 partner): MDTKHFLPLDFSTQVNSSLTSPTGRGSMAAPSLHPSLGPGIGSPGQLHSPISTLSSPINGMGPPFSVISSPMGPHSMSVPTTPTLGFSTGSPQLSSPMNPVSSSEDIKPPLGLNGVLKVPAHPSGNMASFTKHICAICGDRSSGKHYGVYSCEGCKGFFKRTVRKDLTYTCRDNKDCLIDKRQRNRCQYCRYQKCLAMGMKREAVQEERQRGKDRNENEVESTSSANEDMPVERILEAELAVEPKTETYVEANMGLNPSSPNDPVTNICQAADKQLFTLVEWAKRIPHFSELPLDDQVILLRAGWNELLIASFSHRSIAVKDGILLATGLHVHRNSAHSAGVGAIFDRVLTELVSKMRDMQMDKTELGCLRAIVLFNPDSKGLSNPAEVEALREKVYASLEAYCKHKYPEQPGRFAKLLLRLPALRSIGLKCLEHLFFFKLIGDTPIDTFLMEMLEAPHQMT
Format: cell-based
Experimental: Example B-1: In Vitro FXR Assay (TK)
CV-1 cells were seeded at a density of 2,000,000 cells in a T175 flask with DMEM+10% charcoal double-stripped FBS and incubated at 37° C. in 5% CO2 for 18 h (O/N).
After 18 h of incubation, the medium in the T175 flask was changed with fresh DMEM+10% charcoal super-stripped serum. In a polypropylene tube, 2500 μL OptiMEM (Life Technologies, Cat #31985-062) was combined with expression plasmids for hFXR, hRXR, TK-ECRE-luc and pCMX-YFP. The tube was then briefly vortexed and incubated at room temperature for 5 minutes. Transfection reagent (X-tremeGENE HP from Roche, Cat #06 366 236 001) was added to the OptiMEM/plasmid mixture vortexed and incubated at room temperature for 20 minutes. Following incubation, the transfection reagent/DNA mixture complex was added to cells in the T175 flask and the cells were incubated at 37° C. in 5% CO2 for 18 h (O/N).
Compounds were serially diluted in DMSO and added to transfected CV-1 cells. The cells were then incubated for 18 hrs. The next day cells were lysed and examined for luminescence.
COc1ccc([C@H]2CC[C@H](CN(c3cccc(-c4cnc(C(C)C)s4)c3)C(=O)[C@H]3CC[C@H](O)CC3)CC2)nc1C [Compound 9.27, trans-4-Hydroxy-N-(3-(2-isopropylthiazol-5-yl)phenyl)-N-((trans-4-(5-methoxy-6-methylpyridin-2-yl)cyclohexyl)methyl)cyclohexanecarboxamide] gave an EC50 of no more than 250 nM.
In the case of COc1ncc(-c2cccc(N(C[C@H]3CC[C@H](c4ccc(OC)c(C)c4)CC3)C(=O)C3CCC(F)(F)CC3)c2)s1 [Compound 9.32, 4,4-Difluoro-N-((trans-4-(4-methoxy-3-methylphenyl)cyclohexyl)methyl)-N-(3-(2-methoxythiazol-5-yl)phenyl)cyclohexanecarboxamide], the EC50 is reported as no more than 250 nM.
COc1ccc(C23CCC(CN(c4cccc(C#Cc5nccs5)c4)C(=O)[C@H]4CC[C@H](O)CC4)(CC2)CC3)cc1C [Compound 8.04, trans-4-Hydroxy-N-((4-(4-methoxy-3-methylphenyl)bicyclo[2.2.2]octan-1-yl)methyl)-N-(3-(thiazol-2-ylethynyl)phenyl)cyclohexanecarboxamide] showed an EC50 of no more than 250 nM.
Cn1nc(F)c2cc([C@H]3CC[C@H](CN(c4cccc(-c5cnc(C6CC6)s5)c4)C(=O)[C@H]4CC[C@H](O)CC4)CC3)ccc21 [Compound 9, trans-N-(3-(2-Cyclopropylthiazol-5-yl)phenyl)-N-((trans-4-(3-fluoro-1-methyl-1H-indazol-5-yl)cyclohexyl)methyl)-4-hydroxycyclohexanecarboxamide] showed an EC50 of no more than 250 nM.
With COc1ccc([C@H]2CC[C@H](CN(c3cccc(-c4cnc(C5CCCCC5)s4)c3)C(=O)[C@H]3CC[C@H](O)CC3)CC2)cc1C [Compound 7.09, trans-N-(3-(2-Cyclohexylthiazol-5-yl)phenyl)-4-hydroxy-N-((trans-4-(4-methoxy-3-methylphenyl)cyclohexyl)methyl) cyclohexanecarboxamide] the EC50 was 250 to 1000 nM.
COc1ccc([C@H]2CC[C@H](CN(c3cccc(-c4cnc(OC(C)C)s4)c3)C(=O)[C@H]3CC[C@H](O)CC3)CC2)cc1C [Compound 7.17, trans-4-Hydroxy-N-(3-(2-isopropoxythiazol-5-yl)phenyl)-N-((trans-4-(4-methoxy-3-methylphenyl)cyclohexyl)methyl) cyclohexanecarboxamide] gave an EC50 of no more than 250 nM.
COc1ccc([C@H]2CC[C@H](CN(c3cccc(-c4cnc(CCO)s4)c3)C(=O)[C@H]3CC[C@H](O)CC3)CC2)cc1C [Compound 7.20, trans-4-Hydroxy-N-(3-(2-(2-hydroxyethyl)thiazol-5-yl)phenyl)-N-((trans-4-(4-methoxy-3-methylphenyl)cyclohexyl)methyl) cyclohexanecarboxamide] was tested, and the EC50 was 250 to 1000 nM.
COc1ccc([C@H]2CC[C@H](CN(c3cccc(-c4cnc(OCCO)s4)c3)C(=O)[C@H]3CC[C@H](O)CC3)CC2)cc1C [Compound 7.18, trans-4-Hydroxy-N-(3-(2-(2-hydroxyethoxy)thiazol-5-yl)phenyl)-N-((trans-4-(4-methoxy-3-methylphenyl)cyclohexyl)methyl) cyclohexanecarboxamide] showed an EC50 of no more than 250 nM.
Work on COc1ccc([C@H]2CC[C@H](CN(c3cccc(/C=C/c4nccs4)c3)C(=O)[C@H]3CC[C@H](O)CC3)CC2)cc1C [Compound 6.06, trasn-4-Hydroxy-N-((trans-4-(4-methoxy-3-methylphenyl)cyclohexyl)methyl)-N-(3-((E)-2-(thiazol-2-yl)vinyl)phenyl)cyclohexanecarboxamide] yielded an EC50 of no more than 250 nM.
In the case of O=C([C@H]1CC[C@H](O)CC1)N(C[C@H]1CC[C@H](c2ccc3c(c2)OCO3)CC1)c1cccc(-c2cnc(C3CC3)s2)c1 [Compound 9.25, trans-N-((trans-4-(Benzo[d][1,3]dioxol-5-yl)cyclohexyl)methyl)-N-(3-(2-cyclopropylthiazol-5-yl)phenyl)-4-hydroxycyclohexanecarboxamide], the EC50 is reported as no more than 250 nM.
For COc1ccc([C@H]2CC[C@H](CN(c3cccc(C#Cc4nccs4)c3)C(=O)[C@H]3CC[C@H](O)CC3)CC2)cc1C [Compound 18, trans-4-Hydroxy-N-((trans-4-(4-methoxy-3-methylphenyl)cyclohexyl)methyl)-N-(3-(thiazol-2-ylethynyl)phenyl)cyclohexanecarboxamide], the EC50 was no more than 250 nM.
Compound COc1ccc([C@H]2CC[C@H](CN(c3cccc(C#Cc4ncc(C)s4)c3)C(=O)[C@H]3CC[C@H](O)CC3)CC2)cc1C [Compound 8.02, trans-4-Hydroxy-N-((trans-4-(4-methoxy-3-methylphenyl)cyclohexyl)methyl)-N-(3-((5-methylthiazol-2-yl)ethynyl)phenyl)cyclohexanecarboxamide] has an EC50 of no more than 250 nM.
In the case of C#Cc1cc([C@H]2CC[C@H](CN(c3cccc(-c4cnc(OC)s4)c3)C(=O)[C@H]3CC[C@H](O)CC3)CC2)ccc1OC [Compound 9.05, trans-N-((trans-4-(3-Ethynyl-4-methoxyphenyl)cyclohexyl)methyl)-4-hydroxy-N-(3-(2-methoxythiazol-5-yl)phenyl)cyclohexanecarboxamide], the EC50 is reported as no more than 250 nM.
Work on COc1ncc(-c2cccc(N(C[C@H]3CC[C@H](c4cnc(OC)c(Cl)c4)CC3)C(=O)[C@H]3CC[C@H](O)CC3)c2)s1 [Compound 9.04, trans-N-((trans-4-(5-Chloro-6-methoxypyridin-3-yl)cyclohexyl)methyl)-4-hydroxy-N-(3-(2-methoxythiazol-5-yl)phenyl)cyclohexanecarboxamide] yielded an EC50 of no more than 250 nM.
In the case of COc1ccc([C@H]2CC[C@H](CN(c3cccc(-c4cnc(N5CCOCC5)s4)c3)C(=O)[C@H]3CC[C@H](O)CC3)CC2)cc1C [Compound 7.15, trans-4-Hydroxy-N-((trans-4-(4-methoxy-3-methylphenyl)cyclohexyl)methyl)-N-(3-(2-morpholinothiazol-5-yl)phenyl)cyclohexanecarboxamide], the EC50 is reported as no more than 250 nM.
COc1ncc(-c2cccc(N(C[C@H]3CC[C@H](c4ccc(OC)c(C#N)c4)CC3)C(=O)[C@H]3CC[C@H](O)CC3)c2)s1 [Compound 9.06, trans-N-((trans-4-(3-Cyano-4-methoxyphenyl)cyclohexyl)methyl)-4-hydroxy-N-(3-(2-methoxythiazol-5-yl)phenyl)cyclohexanecarboxamide] was tested, and the EC50 was no more than 250 nM.
In the case of COc1ncc(-c2cccc(N(C[C@H]3CC[C@H](c4ccc(OC)c(C)c4)CC3)C(=O)C3CCCCC3)c2)s1 [Compound 1.01, N-((trans-4-(4-Methoxy-3-methylphenyl)cyclohexyl)methyl)-N-(3-(2-methoxythiazol-5-yl)phenyl)cyclohexanecarboxamide], the EC50 is reported as no more than 250 nM.
In the case of COc1ncc(-c2cccc(N(CC3CCC(c4ccc(OC)c(C)c4)CC3C)C(=O)[C@H]3CC[C@H](O)CC3)c2)s1 (stereo partly drawn) [Compound 12, trans-4-Hydroxy-N-((4-(4-methoxy-3-methylphenyl)-2-methylcyclohexyl)methyl)-N-(3-(2-methoxythiazol-5-yl)phenyl)cyclohexanecarboxamide], the EC50 is reported as no more than 250 nM.
Compound CN(C)c1ccc([C@H]2CC[C@H](CN(c3cccc(-c4cnc(C5CC5)s4)c3)C(=O)[C@H]3CC[C@H](O)CC3)CC2)cn1 [Compound 9.07, trans-N-(3-(2-Cyclopropylthiazol-5-yl)phenyl)-N-((trans-4-(6-(dimethylamino)pyridin-3-yl)cyclohexyl)methyl)-4-hydroxycyclohexanecarboxamide] has an EC50 of no more than 250 nM.
COc1ccc([C@H]2CC[C@H](CN(c3cccc(-c4sc(C)nc4C)c3)C(=O)[C@H]3CC[C@H](O)CC3)CC2)cc1C [Compound 7.04, trans-N-(3-(2,4-Dimethylthiazol-5-yl)phenyl)-4-hydroxy-N-((trans-4-(4-methoxy-3-methylphenyl)cyclohexyl)methyl) cyclohexanecarboxamide] gave an EC50 of no less than 1000 nM.
Compound COc1ncc(-c2cccc(N(C[C@H]3CC[C@H](c4ccc5scnc5c4)CC3)C(=O)[C@H]3CC[C@H](O)CC3)c2)s1 [Compound 9.09, trans-N-((trans-4-(Benzo[d]thiazol-5-yl)cyclohexyl)methyl)-4-hydroxy-N-(3-(2-methoxythiazol-5-yl)phenyl)cyclohexanecarboxamide] has an EC50 of no more than 250 nM.
